{"source": "patent US20070123580A1", "about": "“Combination of histone deacetylase inhibitors with chemotherapeutic agents” (priority 2003, published 2007)", "key": {"HCT116 cells [1]": {"system": "HCT116 cells", "assay": "Apoptosis in HCT116 cells", "type": "cell-based, human", "details": "single agent, sub micromolar levels, 48 to 72 hours of exposure"}, "MDA-MB-435P cells": {"system": "MDA-MB-435P cells", "assay": "MTS monolayer proliferation assay, drug combinations analysed with CalcuSyn", "type": "cell-based, human", "details": "in combination with adriamycin", "from_the_text": "(§1) MTS (which is 3-(4,5 Dimethylthiazol-2-yl)-5-(3-carboxyphenyl)-2-(4-sulfophenyl)-2H-tetrazolium, inner salt) assays are used to assess the antiproliferative effects of the drug combinations. The HCT116 and MDA-MB-435P tumor cell lines, previously characterized as sensitive to HDA inhibitors, are chosen for these experiments along with clinically relevant chemotherapeutic drugs. A commercial program, “CalcuSyn”, is employed to determine whether the combined effects are synergistic, antagonistic or additive.\n(§2) Two cell lines, the HCT116 human colon carcinoma cells and MDA-MB-435P, a hormone independent breast carcinoma cell line, are chosen based on their sensitivity to HDAI. Chemotherapeutic agents are paired with the cell lines based on their clinical relevance. The compounds tested in combination with N-hydroxy-3-[4-[[(2-hydroxyethyl)[2-(1H-indol-3-yl)ethyl]-amino]methyl]phenyl]-2E-2-propenamide include adriamycin which is clinically used in the treatment of breast cancer, 5-fluoruracil (5-FU), and camptothecin, used clinically for colon cancer. Due to the reported cross-talk between histone deacetylases and DNA methyl transferases, 5-azacytidine, a DNA methyltransferase inhibitor, is also tested.\nHuman breast carcinoma cells, MDA-MB-435P are cultured as previously described in the reference above. Cell proliferation is measured using an adaptation of published procedures essentially as described, in Zhang R D, Fidler I J, Price J E, “Relative malignant potential of human breast carcinoma cell lines established from pleural effusions and a brain metastasis”, Invasion-Metastasis 1991; 11 :204-15.\nExperiments are done using five-point or six-point drug titrations in 96-well tissue culture plates, with the top row left empty. HCT116 and MDA-MB-435P cells are suspended in complete media at a density of 3.6×10^3 and 2.1×10^4 cell/ml, respectively, and 190 μl are added per well. Complete medium (200 μl) is added to the top row. 24 hours later, after the cells have attached to the bottom of the plate, 10 μl of MTS solution are added to one of the plates to determine the activity at the time of compound addition (T0). The plate is incubated at 37° C. for 4 hours and the OD is measured on a Molecular Devices Thermomax at 490 nm using the Softmax program. The T0 plate serves as a reference for initial activity at the beginning of the experiment. Compound addition begins 24 hours after seeding, the same time as the T0 determination. […] One cell line is tested with four compounds or combinations per plate. 10 microliters of each of the six dilutions are added in triplicate and complete medium is added to the bottom row. The compounds are added to the plates singly or in combination with N-hydroxy-3-[4-[[(2-hydroxyethyl)[2-(1H-indol-3-yl)ethyl]-amino]methyl]phenyl]-2E-2-propenamide. In pretreated combinations, the drugs are added simultaneously, 24 hr prior, or 24 hr after N-hydroxy-3-[4-[[(2-hydroxyethyl)[2-(1H-indol-3-yl)ethyl]-amino]methyl]phenyl]-2E-2-propenamide. As controls for pretreatment, new dilutions are added to untreated cells singly or in combination 48 hours after seeding.\nThe plates are incubated at 37° C. for 72 hours from seeding. The MTS solution is added (as for the T0 plate) and read four hours later. In order to analyze the data, the average value of media alone (background) is subtracted from each experimental well and the triplicate values are averaged for each compound dilution. The following formulas are used to calculate percent growth.\nThe “% Growth” is plotted against compound concentration and used to calculate IC50s employing the user-defined spline function in Microsoft Excel. This function uses linear regression between data points to predict the concentration of compounds at 50% inhibition. IC50s are used to determine the dose range for each compound and the resultant combinations.\n(§3) Using the CalcuSyn program, the Combination Index (CI) is determined by the isobologram equation CI=(D)1/(Dx)1+(D)2/(Dx)2. […]"}, "[2]": {"system": "normal dermal fibroblasts", "assay": "Effect on normal dermal fibroblasts", "type": "cell-based", "details": "single agent; compared with HCT116 cells"}, "[3]": {"system": "MDA-M B-435P breast carcinoma xenograft", "assay": "MDA-MB-435P breast carcinoma xenograft model", "type": "in vivo", "details": "MDA-MB-435P breast xenograft; single daily intravenous doses 10 to 100 mg/kg"}, "p21 promoter": {"system": "p21 promoter", "assay": "Transcriptional activation of the p21 promoter", "type": "cell-based", "details": "single agent; sub-micromolar concentrations"}, "tumor cell lines": {"system": "tumor cell lines", "assay": "MTS monolayer proliferation assay, combination with 5-azacytidine (cell line not stated)", "type": "cell-based", "details": "in combination with 5-azacytidine", "from_the_text": "as §1, §2\nExperiments are done using five-point or six-point drug titrations in 96-well tissue culture plates, with the top row left empty. HCT116 and MDA-MB-435P cells are suspended in complete media at a density of 3.6×10^3 and 2.1×10^4 cell/ml, respectively, and 190 μl are added per well. Complete medium (200 μl) is added to the top row. […] The plate is incubated at 37° C. for 4 hours and the OD is measured on a Molecular Devices Thermomax at 490 nm using the Softmax program. […]\n(§4) The plates are incubated at 37° C. for 72 hours from seeding. The MTS solution is added (as for the T0 plate) and read four hours later. […]\nUsing the CalcuSyn program, the Combination Index (CI) is determined by the isobologram equation CI=(D)1/(Dx)1+(D)2/(Dx)2. […] For each compound the % growth values at each dose as determined in the MTS assay is used. […]"}, "[4]": {"system": "HCT116 colon carcinoma xenograft", "assay": "HCT116 colon carcinoma xenograft model", "type": "in vivo, athymic mice", "details": "single daily intravenous doses 10 to 100 mg/kg"}, "HCT116 cells [5]": {"system": "HCT116 cells", "assay": "MTS monolayer proliferation assay, drug combinations analysed with CalcuSyn", "type": "cell-based, human", "from_the_text": "as §1\nTwo cell lines, the HCT116 human colon carcinoma cells and MDA-MB-435P, a hormone independent breast carcinoma cell line, are chosen based on their sensitivity to HDAI. Chemotherapeutic agents are paired with the cell lines based on their clinical relevance. […]\nExperiments are done using five-point or six-point drug titrations in 96-well tissue culture plates, with the top row left empty. […] The plate is incubated at 37° C. for 4 hours and the OD is measured on a Molecular Devices Thermomax at 490 nm using the Softmax program. […]\nas §4, §3"}, "cell growth": {"system": "cell growth", "assay": "Inhibition of cell growth in vitro", "type": "cell-based", "details": "single agent"}, "[6]": {"system": "histone acetylation (intracellular HDA)", "assay": "Histone acetylation in cells treated in culture", "type": "cell-based, human"}, "[7]": {"system": "A549 lung carcinoma xenograft", "assay": "A549 lung carcinoma xenograft model", "type": "in vivo", "details": "single daily intravenous doses 10 to 100 mg/kg"}, "[8]": {"system": "acetylated histone H3 and H4", "assay": "Acetylated histone levels in HCT116 human tumor xenografts", "details": "in vivo, HCT116 human tumor xenografts from athymic mice", "from_the_text": "The compound also increases acetylated histone H3 and H4 levels in vivo, in HCT116 human tumor xenografts from athymic mice. In this example, the effects of combining N-hydroxy-3-[4-[[(2-hydroxyethyl)[2-(1H-indol-3-yl)ethyl]-amino]methyl]phenyl]-2E-2-propenamide with standard therapeutics or with other experimental drugs on monolayer proliferation of tumor cell lines are investigated."}, "[9]": {"details": "HDAI added 24 hr prior to adriamycin"}, "[10]": {"details": "adriamycin added 24 hr prior to HDAI"}}, "note": "“Also recorded” adds a separate entry of the source.", "data": [{"smiles": "O=C(/C=C/c1ccc(CN(CCO)CCc2c[nH]c3ccccc23)cc1)NO", "note": "[N-hydroxy-3-[4-[[(2-hydroxyethyl)[2-(1H-indol-3-yl)ethyl]-amino]methyl]phenyl]-2E-2-propenamide]", "values": [{"measurement": "apoptosis", "setting": "HCT116 cells [1]", "value": "produces apoptosis"}, {"measurement": "combination index", "setting": "MDA-MB-435P cells; [9]", "value": "~1"}, {"measurement": "combined antiproliferative effect (isobologram / combination index)", "setting": "MDA-MB-435P cells; [9]", "value": "additive effects"}, {"measurement": "combination index", "setting": "MDA-MB-435P cells; [10]", "value": "< 0.1"}, {"measurement": "combined antiproliferative effect (isobologram / combination index)", "setting": "MDA-MB-435P cells; [10]", "value": "synergistic effects; also recorded: strong synergy; also recorded: very strong synergy"}, {"measurement": "combination index", "setting": "MDA-MB-435P cells; simultaneous addition", "value": "~1"}, {"measurement": "combined antiproliferative effect (isobologram / combination index)", "setting": "MDA-MB-435P cells; simultaneous addition", "value": "additive effects"}, {"measurement": "cellular response of normal dermal fibroblasts", "setting": "[2]", "value": "predominantly undergo cell-cycle arrest"}, {"measurement": "reduction of viability of normal dermal fibroblasts", "setting": "[2]", "value": "much higher concentrations and longer times of exposure are required"}, {"measurement": "tumor growth", "setting": "[3]", "value": "reproducibly inhibits tumor growth"}, {"measurement": "p21 promoter activation", "setting": "p21 promoter", "value": "transcriptionally activates the p21 promoter"}, {"measurement": "combined antiproliferative effect", "setting": "tumor cell lines; all drug addition schedules", "value": "mainly additive effects; also recorded: concentration-dependent effects"}, {"measurement": "combined antiproliferative effect", "setting": "tumor cell lines; high inhibitory concentrations (IC50)", "value": "additive effects"}, {"measurement": "combined antiproliferative effect", "setting": "tumor cell lines; low inhibitory concentrations (IC25)", "value": "antagonistic effects"}, {"measurement": "tumor growth", "setting": "[4]", "value": "reproducibly inhibits tumor growth"}, {"measurement": "combined antiproliferative effect (isobologram / combination index)", "setting": "HCT116 cells [5]; in combination with 5-FU", "value": "mainly additive effects; also recorded: additive or weak antagonistic effects"}, {"measurement": "combined antiproliferative effect (combination index)", "setting": "HCT116 cells [5]; in combination with camptothecin", "value": "mainly additive effects; also recorded: additive or weak antagonism; also recorded: additive or weak antagonistic effects"}, {"measurement": "concentration inhibiting cell growth", "setting": "cell growth", "value": "sub-micromolar concentrations"}, {"measurement": "levels of histone acetylation", "setting": "[6]; HCT116 cells treated in culture continuously for 3 to 24 hr", "value": "Increased levels of histone acetylation"}, {"measurement": "histone acetylation", "setting": "[6]; single agent, sub-micromolar concentrations, cells not given", "value": "increases histone acetylation"}, {"measurement": "tumor growth", "setting": "[7]", "value": "reproducibly inhibits tumor growth"}, {"measurement": "acetylated histone H3 levels", "setting": "[8]", "value": "increases"}, {"measurement": "acetylated histone H4 levels", "setting": "[8]", "value": "increases"}]}]}
